Series [1] deals with T1, Plasma kallikrein (Homo sapiens, UniProt P03952). The series can be described thus: Inhibition of purified human plasma kallikrein using H-D-Pro-Phe-Arg-pNA.2HCl as substrate measured after 3 mins by microplate reader analysis.
In series [2] the target is T1, Plasma kallikrein. The series can be described thus: Inhibition of endogenous human plasma kallikrein using Z-Phe-Arg-AMC.HCl as substrate measured after 5 mins by microplate reader analysis.
The nature of series [3]: AUC (0 to 24hrs) in Sprague-Dawley rat at 10 mg/kg,po. In kind it is ADME, organism-based. The arrangement: time < 24 hr, dose 10 mg/kg, route po. Conditions: in vivo; for AUC(0-t) at 24 h: Sprague-Dawley.
The nature of series [4]: Cmin in Sprague-Dawley rat at 10 mg/kg,po measured after 24 hrs. In kind it is ADME, organism-based. Conditions: in vivo; for concentration at 24 h: Sprague-Dawley, read-out: Cmin.
A short description of series [5]: Cmax in Sprague-Dawley rat at 10 mg/kg,po. In kind it is ADME, organism-based. The arrangement: dose 10 mg/kg, route po. As to conditions: in vivo.

T1 sequence (P03952 20-390 limits assumed): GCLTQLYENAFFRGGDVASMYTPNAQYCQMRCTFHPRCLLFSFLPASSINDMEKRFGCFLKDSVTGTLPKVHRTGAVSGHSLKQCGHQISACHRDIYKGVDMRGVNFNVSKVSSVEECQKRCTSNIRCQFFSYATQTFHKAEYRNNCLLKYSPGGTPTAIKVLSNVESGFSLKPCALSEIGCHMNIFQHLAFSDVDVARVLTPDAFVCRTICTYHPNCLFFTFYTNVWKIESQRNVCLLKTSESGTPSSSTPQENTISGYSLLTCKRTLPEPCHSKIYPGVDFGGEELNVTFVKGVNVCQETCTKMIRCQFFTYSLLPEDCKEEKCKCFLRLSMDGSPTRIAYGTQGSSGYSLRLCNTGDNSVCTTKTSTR
T1 sequence (P03952 391-638 limits assumed): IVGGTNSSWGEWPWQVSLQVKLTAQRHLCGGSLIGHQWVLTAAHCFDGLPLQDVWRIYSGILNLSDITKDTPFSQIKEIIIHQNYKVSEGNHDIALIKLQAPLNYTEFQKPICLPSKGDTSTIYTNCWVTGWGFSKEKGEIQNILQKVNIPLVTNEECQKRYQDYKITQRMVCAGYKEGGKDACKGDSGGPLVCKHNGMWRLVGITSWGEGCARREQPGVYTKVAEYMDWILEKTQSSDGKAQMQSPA

Take `NCc1cccc(-n2nc(C(F)(F)F)cc2C(=O)Nc2cccc(C(O)(CCC3CC3)c3ccccn3)c2)c1` (stereo unspecified): the IC50 against Plasma kallikrein [1] came out at 18.5 nM; against Plasma kallikrein [2], 104 nM.

On to `NCc1cccc(-n2nc(C(F)(F)F)cc2C(=O)Nc2cc(C(N)(CCC3CC3)c3cccc(C(N)=O)c3)ccc2F)c1` (stereo unspecified), for which the figures for the IC50 against Plasma kallikrein [1] and against Plasma kallikrein [2] were 1.3 nM and 6 nM, respectively. Moreover, the AUC(0-t) at 24 h in series [3] is 306 ng·h/mL. For the same molecule, in series [4], the concentration at 24 h came to 9.4 ng/mL. Also, the Cmax in series [5] (Sprague-Dawley, read-out: Cmax) stood at 17 ng/mL.

Take `NCc1cccc(-n2nc(C(F)(F)F)cc2C(=O)Nc2cc(C(N)(CCC3CC3)c3ccc(C(N)=O)cc3)ccc2F)c1` (stereo unspecified): the IC50 at Plasma kallikrein [1] is 0.9 nM; against Plasma kallikrein [2], 3.8 nM.

As for `N#Cc1cccc(C(N)(CCC2CC2)c2ccc(F)c(NC(=O)c3cc(C(F)(F)F)nn3-c3cccc(CN)c3)c2)n1` (stereo unspecified), the figures for the IC50 on Plasma kallikrein [1] and on Plasma kallikrein [2] were 2.9 nM and 12 nM, respectively. In series [3], the AUC(0-t) at 24 h was found to be 2890 ng·h/mL. Moreover, the concentration at 24 h in series [4] stood at 53.3 ng/mL. In addition, in series [5] (Sprague-Dawley, read-out: Cmax), the Cmax was found to be 676 ng/mL.

On to `NCc1cccc(-n2nc(C(F)(F)F)cc2C(=O)Nc2cccc(C(NCC3CC3)c3ccccc3)c2)c1` (stereo unspecified), for which the IC50 against Plasma kallikrein [1] came out at 5.4 nM; at Plasma kallikrein [2], 19.3 nM.

As for `NCc1cccc(-n2nc(C(F)(F)F)cc2C(=O)Nc2cccc(C(CCC3CC3)c3ccccc3)c2)c1` (stereo unspecified), the figures for the IC50 on Plasma kallikrein [1] and on Plasma kallikrein [2] were 10.4 nM and 2030 nM, respectively.

As for `NCc1cccc(-n2nc(C(F)(F)F)cc2C(=O)Nc2cc(C(N)(CCC3CC3)c3ccc(C(N)=O)nc3)ccc2F)c1` (single isomer, unassigned; (+)), the IC50 stood at 2.3 nM against Plasma kallikrein [1] and 1.7 nM against Plasma kallikrein [2]. Also, the AUC(0-t) at 24 h in series [3] was found to be 134 ng·h/mL. For the same molecule, the Cmax in series [5] (Sprague-Dawley, read-out: Cmax) was 27 ng/mL.

Regarding `NCc1cccc(-n2nc(C(F)(F)F)cc2C(=O)Nc2cccc(C(O)(CCC3CC3)c3ccccc3)c2)c1` (stereo in doubt; 6), the IC50 amounted to 14 nM at Plasma kallikrein [1] and 191 nM at Plasma kallikrein [2].

`NCc1cccc(-n2nc(C(F)(F)F)cc2C(=O)Nc2cccc(C(O)(CCC3CC3)c3cccnc3)c2)c1` (stereo in doubt; 8): the IC50 worked out at 5.7 nM against Plasma kallikrein [1] and 23 nM at Plasma kallikrein [2].

Turning to `NCc1cccc(-n2nc(C(F)(F)F)cc2C(=O)Nc2cccc(C(O)(CCC3CC3)c3ccncc3)c2)c1` (stereo in doubt; 9), the figures for the IC50 against Plasma kallikrein [1] and against Plasma kallikrein [2] were 4.7 nM and 17 nM, respectively.

Regarding `NCc1cccc(-n2nc(C(F)(F)F)cc2C(=O)Nc2cccc(C(O)(CCC3CC3)c3ccccc3)c2)c1` (stereo in doubt; 10), the IC50 against Plasma kallikrein [1] amounted to 1.2 nM; on Plasma kallikrein [2], 56 nM.

Consider `NCc1cccc(-n2nc(C(F)(F)F)cc2C(=O)Nc2cccc(C(O)(CCC3CC3)c3ccccc3)c2)c1` (stereo in doubt; 11), for which the values for the IC50 against Plasma kallikrein [1] and on Plasma kallikrein [2] were 62 nM and 1190 nM, respectively.

Turning to `NCc1cccc(-n2nc(C(F)(F)F)cc2C(=O)Nc2cccc(C(O)(CCC3CC3)c3cccnc3)c2)c1` (stereo in doubt; 18), the IC50 against Plasma kallikrein [1] is 1.9 nM; against Plasma kallikrein [2], 9 nM. Moreover, in series [3], the area under the curve AUC(0-t) at 24 h came out at 128 ng·h/mL. Besides, the Cmax in series [5] (Sprague-Dawley, read-out: Cmax) is 51 ng/mL.

In the case of `NCc1cccc(-n2nc(C(F)(F)F)cc2C(=O)Nc2cccc(C(O)(CCC3CC3)c3cccnc3)c2)c1` (stereo in doubt; 19), the IC50 on Plasma kallikrein [1] is 59 nM; at Plasma kallikrein [2] it was 264 nM.

`NCc1cccc(-n2nc(C(F)(F)F)cc2C(=O)Nc2cc(C(O)(CCC3CC3)c3cccnc3)ccc2F)c1` (stereo in doubt; 20) had an AUC(0-t) at 24 h in series [3] of 1440 ng·h/mL. Also, the concentration at 24 h in series [4] was 13 ng/mL. The Cmax in series [5] (Sprague-Dawley, read-out: Cmax) was determined as 383 ng/mL.

As for `NCc1cccc(-n2nc(C(F)(F)F)cc2C(=O)Nc2cc(C(O)(CCC3CC3)c3cccnc3)ccc2F)c1` (stereo in doubt; 21), in series [3] (24 h), the AUC was found to be 887 ng·h/mL. The Cmin in series [4] (po, 10 mg/kg, 24 h) is 9 ng/mL. The molecule also returned a Cmax in series [5] of 224 ng/mL.

On to `NCc1cccc(-n2nc(C(F)(F)F)cc2C(=O)Nc2cccc(C(O)(CCC3CC3)c3ccncc3)c2)c1` (stereo in doubt; 23), for which the results for the concentration for half-maximal inhibition (IC50) against Plasma kallikrein [1] and on Plasma kallikrein [2] were 1.3 nM and 7.6 nM, respectively. The molecule also had an AUC(0-t) at 24 h in series [3] of 11 ng·h/mL. Moreover, the Cmax in series [5] (Sprague-Dawley, read-out: Cmax) came to 7 ng/mL.

With `NCc1cccc(-n2nc(C(F)(F)F)cc2C(=O)Nc2cccc(C(O)(CCC3CC3)c3ccncc3)c2)c1` (stereo in doubt; 24), the IC50 on Plasma kallikrein [1] amounted to 59 nM; on Plasma kallikrein [2] it was 178 nM.

`NCc1cccc(-n2nc(C(F)(F)F)cc2C(=O)Nc2cc(C(O)(CCC3CC3)c3ccncc3)ccc2F)c1` (stereo in doubt; 25): the figures for the IC50 against Plasma kallikrein [1] and on Plasma kallikrein [2] were 1.1 nM and 7.7 nM, respectively. The molecule also registered an AUC(0-t) at 24 h in series [3] of 95 ng·h/mL. Further, in series [4], the concentration at 24 h stood at 2 ng/mL. Further, in series [5] (Sprague-Dawley, read-out: Cmax), the Cmax amounted to 42 ng/mL.

Regarding `NCc1cccc(-n2nc(C(F)(F)F)cc2C(=O)Nc2cc(C(O)(CCC3CC3)c3ccncc3)ccc2F)c1` (stereo in doubt; 26), the IC50 came to 180 nM against Plasma kallikrein [1] and 165 nM against Plasma kallikrein [2].

Regarding `NCc1cccc(-n2nc(C(F)(F)F)cc2C(=O)Nc2cc(C(N)(CCC3CC3)c3ccccn3)ccc2F)c1` (stereo in doubt; 29), the AUC(0-t) at 24 h in series [3] came out at 960 ng·h/mL. Besides, the concentration at 24 h in series [4] amounted to 15.1 ng/mL. Moreover, the Cmax in series [5] (Sprague-Dawley, read-out: Cmax) came to 157 ng/mL.

For `NCc1cccc(-n2nc(C(F)(F)F)cc2C(=O)Nc2cc(C(N)(CCC3CC3)c3cccnc3)ccc2F)c1` (stereo in doubt; 31), in series [3], the AUC(0-t) at 24 h worked out at 888 ng·h/mL. In series [4], the concentration at 24 h was 9.62 ng/mL. Besides, in series [5] (Sprague-Dawley, read-out: Cmax), the Cmax amounted to 190 ng/mL.

Regarding `NCc1cccc(-n2nc(C(F)(F)F)cc2C(=O)Nc2cc(C(N)(CCC3CC3)c3ccncc3)ccc2F)c1` (stereo in doubt; 33), the values for the IC50 against Plasma kallikrein [1] and on Plasma kallikrein [2] were 1.5 nM and 3 nM, respectively. Besides, the AUC(0-t) at 24 h in series [3] turned out to be 825 ng·h/mL. The concentration at 24 h in series [4] is 22.9 ng/mL. The Cmax in series [5] (Sprague-Dawley, read-out: Cmax) was found to be 93 ng/mL.

In the case of `NCc1cccc(-n2nc(C(F)(F)F)cc2C(=O)Nc2cc(C(N)(CCC3CC3)c3ccncc3)ccc2F)c1` (stereo in doubt; 34), the IC50 on Plasma kallikrein [1] was determined as 118 nM; on Plasma kallikrein [2], 76 nM.

With `Cc1cc(C(N)(CCC2CC2)c2ccc(F)c(NC(=O)c3cc(C(F)(F)F)nn3-c3cccc(CN)c3)c2)ccn1` (stereo in doubt; 35), the figures for the IC50 at Plasma kallikrein [1] and against Plasma kallikrein [2] were 1.2 nM and 3 nM, respectively. In addition, in series [3], the AUC(0-t) at 24 h was 1560 ng·h/mL. In addition, the concentration at 24 h in series [4] stood at 24.5 ng/mL. For the same molecule, the Cmax in series [5] (Sprague-Dawley, read-out: Cmax) is 390 ng/mL.

On Plasma kallikrein [1], `Cc1cc(C(N)(CCC2CC2)c2ccc(F)c(NC(=O)c3cc(C(F)(F)F)nn3-c3cccc(CN)c3)c2)ccn1` (stereo in doubt; 36) displayed an IC50 of 18.4 nM.

`N#Cc1cccc(C(N)(CCC2CC2)c2ccc(F)c(NC(=O)c3cc(C(F)(F)F)nn3-c3cccc(CN)c3)c2)c1` (stereo in doubt; 37): the values for the IC50 against Plasma kallikrein [1] and at Plasma kallikrein [2] were 1.3 nM and 3.2 nM, respectively. Further, the AUC(0-t) at 24 h in series [3] was found to be 3330 ng·h/mL. In series [4], the concentration at 24 h stood at 56.5 ng/mL. Besides, the Cmax in series [5] (Sprague-Dawley, read-out: Cmax) came out at 429 ng/mL.

Take `N#Cc1cccc(C(N)(CCC2CC2)c2ccc(F)c(NC(=O)c3cc(C(F)(F)F)nn3-c3cccc(CN)c3)c2)c1` (stereo in doubt; 38): the IC50 against Plasma kallikrein [1] was found to be 234 nM; on Plasma kallikrein [2] it was 382 nM.

Regarding `N#Cc1ccc(C(N)(CCC2CC2)c2ccc(F)c(NC(=O)c3cc(C(F)(F)F)nn3-c3cccc(CN)c3)c2)cc1` (stereo in doubt; 41), in series [3], the AUC(0-t) at 24 h stood at 2290 ng·h/mL. Moreover, the concentration at 24 h in series [4] was 40.1 ng/mL. Besides, the Cmax in series [5] (Sprague-Dawley, read-out: Cmax) was 303 ng/mL.
